Where a name gives a salt, the structure may show the parent alone.
Legend:
[1] = target: PIM1 transgenic cells (Ba/F3) (Homo sapiens, UniProt P11309); assay: Proliferation inhibitory effect on PIM1 transgenic cells; type: cell-based, mouse; settings: proliferation inhibition, 72 hours, Cell Counting Kit-8, read-out: PIM1 IC50
Source text: Human PIM1, 2, and 3 genes were inserted into the multi-cloning sites of retrovirus expression vectors pMYs-IRES-GFP, respectively, to prepare gene transfer vectors. Then, each gene transfer vector was introduced into packaging cells PLAT-E derived from a human fetal kidney cell line in the logarithmic growth phase, using a transfection reagent (FuGENE6, Promega Corporation). Since the culture supernatant of PLAT-E after gene transfer contained virus particles for gene transfer, the culture supernatant was collected and used as a medium for gene transfer. The medium for gene transfer was added to a plate coated with RetroNectin, and the plate was incubated to attach the virus particles to the plate. Then, a mouse pro-B cell line Ba/F3 in the logarithmic growth phase was seeded on the plate and infected with the virus to prepare PIM1, 2, or 3 transgenic cells that proliferate in a PIM 1, 2, or 3-dependent manner. The expression of PIM1, 2, or 3 protein in each cell was confirmed by Western blotting.
Each test substance was prepared to 10 mM with dimethylsulfoxide (DMSO), and diluted with DMSO so as to have concentrations of 3000, 1000, 300, 100, 30, 10, 3, and 1 μM. Moreover, each dilution was further diluted 10-fold with distilled water to prepare a test substance solution.
PIM1, 2, 3-expressing cells were seeded on a 96-well plate, and each test substance solution prepared the next day was added such that final concentrations were 10000, 3000, 1000, 300, 100, 30, 10, 3, and 1 nM. 72 hours after the addition, 10 μL of Cell Counting Kit-8 (DOJINDO LABORATORIES) was added to each well. After incubation for 1 to 4 hours, absorbance OD450 at 450 nm was measured. In addition, absorption OD650 at 650 nm as a reference wavelength was measured.
OD450-OD650 for each condition was calculated, and then the inhibition rates when OD450-OD650 of negative control (DMSO only) and OD450-OD650 of Blank (without cells) were set to 0% and 100%, respectively, were calculated. Then, non-linear regression analysis was performed for logarithmic dose and inhibition rate using a two-parameter logistic model to estimate IC50 values.

[2] = target: T1, PIM1 serine/threonine kinase (Homo sapiens, UniProt P11309); assay: PIM1 serine/threonine kinase inhibitory effect; type: biochemical; settings: PIM1 serine/threonine kinase activity; ATP 40 μM; 30° C., 30 minutes
T1 construct: purchased Carna Bioscience, Inc
Procedure, shortened: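 Compounds were tested in duplicate from 0.01 to 10000 nM final against PIM1 kinase (0.15 μg/ml). The reaction ran for 30 minutes at 30° C with 40 μM ATP and 0.5 μM biotin-tagged substrate at pH 7.0. Phosphorylation was read by time-resolved FRET (OD665/OD620) after 1 h; IC50 by non-linear fit.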

Chain of PIM1 transgenic cells (Ba/F3) (P11309 whole entry, stated change not applied): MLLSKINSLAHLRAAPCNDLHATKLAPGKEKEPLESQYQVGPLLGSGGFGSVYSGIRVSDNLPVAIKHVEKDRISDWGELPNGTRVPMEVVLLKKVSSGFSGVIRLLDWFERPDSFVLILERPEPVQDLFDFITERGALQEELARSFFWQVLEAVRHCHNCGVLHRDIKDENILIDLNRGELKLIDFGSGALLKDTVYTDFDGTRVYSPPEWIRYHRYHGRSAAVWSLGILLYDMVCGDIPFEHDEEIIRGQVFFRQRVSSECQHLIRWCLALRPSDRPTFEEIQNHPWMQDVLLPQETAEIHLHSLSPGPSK
T1 sequence (P11309 whole entry): as the sequence (P11309 whole entry, stated change not applied) above

SMILES	GI50 [1] [nM]	IC50 [2] [nM]
O=c1[nH]nc(-c2ccc(C(F)(F)F)c(N[C@@H](C(F)F)C3(F)CCNCC3)c2)o1 [Example 140, 5-[3-{[(1R)-2,2-difluoro-1-(4-fluoropiperidin-4-yl)ethyl]amino}-4-(trifluoromethyl)phenyl]-1,3,4-oxadiazol-2(3H)-one hydrochloride]	57	4.1
N[C@H]1CCCN(CCNc2cc(-c3n[nH]c(=O)o3)ccc2C(F)(F)F)C1 [Example 73, 5-[3-({2-[(3S)-3-aminopiperidin-1-yl]ethyl}amino)-4-(trifluoromethyl)phenyl]-1,3,4-oxadiazol-2(3H)-one dihydrochloride]	570	21
O=c1[nH]nc(-c2ccc(C(F)(F)F)c(N3CCC4(CC3)CNC4)c2)o1 [Example 16, 5-[3-(2,7-diazaspiro[3.5]nonan-7-yl)-4-(trifluoromethyl)phenyl]-1,3,4-oxadiazol-2(3H)-one hydrochloride]	2400	53
CC(CCCCN)Nc1cc(-c2n[nH]c(=O)o2)ccc1C(F)(F)F (stereo not drawn) [Example 5, 5-{3-[(6-aminohexan-2-yl)amino]-4-(trifluoromethyl)phenyl}-1,3,4-oxadiazol-2(3H)-one hydrochloride]	500	11
O=c1[nH]nc(-c2ccc(C(F)(F)F)c(NCC3(F)CCCNC3)c2)o1 (stereo not drawn) [Example 109, 5-[3-{[(3-fluoropiperidin-3-yl)methyl]amino}-4-(trifluoromethyl)phenyl]-1,3,4-oxadiazol-2(3H)-one hydrochloride]	480	28
O=c1[nH]nc(-c2ccc(C(F)(F)F)c(NC[C@H]3CCNC[C@H]3F)c2)o1 [Example 126, 5-[3-({[(3S,4R)-3-fluoropiperidin-4-yl]methyl}amino)-4-(trifluoromethyl)phenyl]-1,3,4-oxadiazol-2(3H)-one hydrochloride]	600	11

The remaining lines, values ahead:

GI50 [1] [nM]	IC50 [2] [nM]	SMILES
23	2	C[C@H](Nc1cc(-c2n[nH]c(=O)o2)cc(Cl)c1Cl)[C@H]1C[C@@H](N)C1 [Example 179, 5-[3-({(1S)-1-[(1s,3R)-3-aminocyclobutyl]ethyl}amino)-4,5-dichlorophenyl]-1,3,4-oxadiazol-2(3H)-one dihydrochloride]
250	10	CC(Oc1cc(-c2n[nH]c(=O)o2)ccc1C(F)(F)F)C1CCNCC1 (stereo not drawn) [Example 239, 5-{3-[1-(piperidin-4-yl)ethoxy]-4-(trifluoromethyl)phenyl}-1,3,4-oxadiazol-2(3H)-one]
34	3.2	C[C@H](Nc1cc(-c2n[nH]c(=O)o2)cc(F)c1Cl)[C@H]1C[C@@H](N)C1 [Example 178, 5-[3-({(1S)-1-[(1s,3R)-3-aminocyclobutyl]ethyl}amino)-4-chloro-5-fluorophenyl]-1,3,4-oxadiazol-2(3H)-one hydrochloride]
50	2.6	C[C@H](Nc1cc(-c2n[nH]c(=O)o2)cc(F)c1OC(F)(F)F)C1(C)CCNCC1 [Example 207, 5-[3-fluoro-5-{[(1S)-1-(4-methylpiperidin-4-yl)ethyl]amino}-4-(trifluoromethoxy)phenyl]-1,3,4-oxadiazol-2(3H)-one]
9.2	2	C[C@H](Nc1cc(-c2n[nH]c(=O)o2)cc(F)c1C(F)(F)F)[C@@H]1C[C@H](N)C1(C)C [Example 150, 5-[3-({(1S)-1-[(1R,3S)-3-amino-2,2-dimethylcyclobutyl]ethyl}amino)-5-fluoro-4-(trifluoromethyl)phenyl]-1,3,4-oxadiazol-2(3H)-one hydrochloride]
57	3.5	CN[C@H]1CC[C@H]([C@H](C)Nc2cc(-c3n[nH]c(=O)o3)cc(F)c2OC(F)(F)F)CC1 [Example 204, 5-[3-fluoro-5-({(1S)-1-[(1r,4S)-4-(methylamino)cyclohexyl]ethyl}amino)-4-(trifluoromethoxy)phenyl]-1,3,4-oxadiazol-2(3H)-one hydrochloride]
